# Data: US20020152479A1, “Car modulators: screening and treatment of hypercholesterolemia” (priority 2000, published 2002)
# Read-outs that look alike come from different tables or passages of the source. Where no end group is shown, it is not given here. rhodamine = not defined here
# B1: rhodamine-ILRKLLQE (rhodamine-labeled peptide derived from the receptor binding domain of the coactivator SRC-1) (peptide)
# peptide: rhodamine-ILRKLLQE
# modifications: reading uncertain; also: printed as rhodamine-ILRKLLQE
# notes: Labeled 8-mer used as the fluorescence polarization sensor; also called sensor peptide
# Tests used:
# [1] = molecular target: T1, GST-CARα ligand binding domain fusion protein (Homo sapiens, UniProt Q14994); experiment: Peptide sensor fluorescence polarization assay, GST-CARα ligand binding domain with rhodamine-[…] (SRC-1 peptide)
# T1 construct: made in house; host or cells: E. coli
# T1 sequence (Q14994 76-348 isoform Q14994-2): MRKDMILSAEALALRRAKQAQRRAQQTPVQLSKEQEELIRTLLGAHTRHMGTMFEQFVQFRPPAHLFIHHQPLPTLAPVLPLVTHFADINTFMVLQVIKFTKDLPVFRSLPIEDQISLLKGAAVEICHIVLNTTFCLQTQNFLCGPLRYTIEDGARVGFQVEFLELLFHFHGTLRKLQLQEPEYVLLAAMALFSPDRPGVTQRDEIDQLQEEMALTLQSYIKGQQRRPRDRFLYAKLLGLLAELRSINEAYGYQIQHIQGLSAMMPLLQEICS
# Description: (§1) A portion of DNA encoding the ligand binding domain of CARα encoding amino acids 76 to 348 (GenBank Accession No. CAA83016) was subcloned into a glutathione S-transferase (GST) fusion protein expression vector (pGEX-2TK, Amersham-Pharmacia) to create a vector that encodes a fusion protein in which GST is fused to the amino terminus of the CAR ligand binding domain. The GST-CAR protein was expressed in E. coli and purified over a glutathione affinity column. The GST-CAR fusion protein was incubated with a rhodamine-labeled peptide derived from the receptor binding domain of the coactivator SRC-1, rhodamine-[…] (SEQ ID NO: 7) (see WO 99/27365). The fluorescence polarization was measured as described in WO 99/27365.
# (§2) Using the compounds set out in Table 1, a peptide sensor assay was carried out using the method of Example 3. Fusion proteins encoding the ligand binding domain of CARα (GST-CARα; see Example 3) and CARβ (GST-CARβ) were used in the assay. A portion of the DNA for the ligand binding domain of CARβ (GenBank Accession No. AF009327) encoding amino acids 86 to 358 was subcloned into a glutathione S-transferase (GST) fusion protein expression vector (pGEX-2TK, Amersham-Pharmacia) to create a vector that encodes a fusion protein in which GST is fused to the amino terminus of the CARβ ligand binding domain (GST-CARβ). The GST-CARβ was purified using glutathione affinity chromatography.
# (§3) The notation ND means not determined.
# CAR = experiment: RARE-luciferase reporter gene assay in CV-1 cells with increasing CAR expression plasmid (Example 4); format: cell-based; details: 10 μM compound, 24 h
# CARβ = molecular target: T2, CARβ (Mus musculus, UniProt O35627); format: cell-based
# T2 construct: expressed in transfected cells; host or cells: CV-1 cells
# T2 sequence (O35627 1-358): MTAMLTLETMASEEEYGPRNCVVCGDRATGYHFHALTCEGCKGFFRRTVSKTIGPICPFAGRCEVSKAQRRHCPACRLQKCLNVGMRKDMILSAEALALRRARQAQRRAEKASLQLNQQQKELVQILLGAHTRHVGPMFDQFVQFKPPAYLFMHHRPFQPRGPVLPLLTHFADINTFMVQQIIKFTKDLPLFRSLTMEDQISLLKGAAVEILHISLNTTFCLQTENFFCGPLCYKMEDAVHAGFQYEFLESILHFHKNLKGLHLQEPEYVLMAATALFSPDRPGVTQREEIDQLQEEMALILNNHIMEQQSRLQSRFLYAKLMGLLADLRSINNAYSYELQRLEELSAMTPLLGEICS
# [2] = molecular target: T3, GST-CARβ ligand binding domain fusion protein (Mus musculus, UniProt O35627); experiment: Peptide sensor fluorescence polarization assay, GST-CARβ ligand binding domain; details: half-maximal concentration of stimulation of peptide sensor assay signal
# T3 construct: encoding amino acids 86 to 358 was subcloned; made in house
# T3 sequence (O35627 86-358): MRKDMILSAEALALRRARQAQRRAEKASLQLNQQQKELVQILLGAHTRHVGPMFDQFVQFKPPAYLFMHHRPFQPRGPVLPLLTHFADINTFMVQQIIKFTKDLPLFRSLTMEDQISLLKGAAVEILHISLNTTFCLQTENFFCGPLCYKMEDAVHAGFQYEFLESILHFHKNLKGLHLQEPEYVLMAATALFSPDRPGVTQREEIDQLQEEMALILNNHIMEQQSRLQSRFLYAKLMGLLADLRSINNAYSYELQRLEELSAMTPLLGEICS
# Description: as §1, §2, §3
# CARα = molecular target: T4, CARα (Homo sapiens, UniProt Q14994); format: cell-based
# T4 construct: expressed in transfected cells; host or cells: CV-1 cells
# T4 sequence (Q14994 1-348 isoform Q14994-2): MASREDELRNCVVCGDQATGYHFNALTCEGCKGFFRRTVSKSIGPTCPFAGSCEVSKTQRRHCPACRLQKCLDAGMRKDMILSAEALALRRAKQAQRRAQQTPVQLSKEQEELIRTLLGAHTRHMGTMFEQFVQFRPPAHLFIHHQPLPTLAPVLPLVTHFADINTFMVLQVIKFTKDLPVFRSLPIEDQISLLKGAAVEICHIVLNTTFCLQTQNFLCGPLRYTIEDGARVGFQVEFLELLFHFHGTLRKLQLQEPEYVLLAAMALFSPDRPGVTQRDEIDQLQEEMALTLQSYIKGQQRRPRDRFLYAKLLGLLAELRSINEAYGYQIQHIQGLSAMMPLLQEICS
# [3] = Total plasma cholesterol after TCPOBOP in CAR wild-type, heterozygous and knockout mice; format: in vivo; details: single i.p. 3 mg/kg, four days after dosing
# [4] = Lipoprotein particle composition (LDL/VLDL) by electrophoresis of plasma, wild-type and CAR knockout mice; format: in vivo; details: single i.p. 3 mg/kg, four days after dosing
# mouse CAR = molecular target: T5, mouse CAR (Mus musculus, UniProt O35627); details: Tzameli et al. (2000); read-out: EC50, upregulation of CAR-mediated transcription; cited from earlier work
# T5 sequence (O35627 1-358): T2 sequence (O35627 1-358)
# CYP2B = details: mouse, in vivo, ip, cited from earlier work
# [5] = Plasma cholesterol, HDL cholesterol and triglycerides in wild-type C57B1/6 mice; format: in vivo; details: single i.p. 3 mg/kg, four days after dosing
# [6] = molecular target: GST-CARβ ligand binding domain fusion protein (mouse, UniProt P08515 1-218 = GST; O35627 86-358); experiment: fluorescence polarization peptide sensor assay, with small-molecule agonists
# [7] = half-maximal concentration of stimulation of peptide sensor assay signal, read-out: GST-CARα EC50
molecule,measurement,setting,value
"CC(=O)[C@H]1CC[C@H]2[C@@H]3CC[C@@H]4CC(=O)CC[C@]4(C)[C@H]3CC[C@]12C [5β-pregnan-3,20-dione]",EC50,[1],2500 nM
same,Fluorescence polarization between sensor peptide and GST-CAR,[1],increased
same,Transcription of the luciferase reporter gene (normalized luciferase activity),CAR,increased transcription
C[C@]12CC[C@@H](O)C[C@@H]1CC[C@@H]1[C@@H]2CC[C@]2(C)C=CC[C@@H]12 [5α-androst-16-en-3α-ol],IC50,"[1]; in the presence of 5 μM 5β-pregnan-3,20-dione, read-out: IC50, decrease of fluorescence polarization seen with 5β-pregnan-3,20-dione",530 nM
CCN(CC)c1ccc(C2C3=C(CC(C)(C)CC3=O)OC3=C2C(=O)CC(C)(C)C3)c(OCc2ccc(Cl)cc2Cl)c1 [Compound T0438248],"CMV-CARβ, fold increase in normalized luciferase activity over DMSO control",CARβ,0.96
same,EC50,[2],65.4 nM
same,EC50,[1]; [7],5.25 nM
same,"CMV-CARα, fold increase in normalized luciferase activity over DMSO control",CARα,2.92
C[C@@]12CCC[C@H]1[C@@H]1CC[C@H]3C[C@H](O)CC[C@]3(C)[C@H]1CC2 [5α-androstane-3α-ol],Transcription of the luciferase reporter gene (normalized luciferase activity),CAR,decreased
CCOC(=O)C(Nc1ccc(OCc2ccccc2)cc1)c1ccccc1 (centres unmarked) [Compound T0037566],"CMV-CARβ, fold increase in normalized luciferase activity over DMSO control",CARβ,2.14
same,EC50,[2],99.1 nM
same,EC50,[1]; [7],221 nM
same,"CMV-CARα, fold increase in normalized luciferase activity over DMSO control",CARα,1.96
"Clc1cnc(Oc2ccc(Oc3ncc(Cl)cc3Cl)cc2)c(Cl)c1 [TCPOBOP, 1,4-bis[2-(3,5-dichloropyridyloxy)]benzene]","Plasma cholesterol levels, CAR knockout mice",[3],no effect
same,"Reduction in total cholesterol, female heterozygous CAR mice (+/−)",[3],60%
same,"Total plasma cholesterol, mice with one functional CAR gene (+/−)",[3],decreased total plasma cholesterol
same,"Total plasma cholesterol, wild-type littermates (+/+)",[3],decreased total plasma cholesterol
same,EC50,[2],60 nM
same,"Plasma levels of LDL/VLDL, CAR deficient (knockout) mice",[4],unaffected
same,"Plasma levels of LDL/VLDL, wild-type mice",[4],significant reduction
same,EC50,mouse CAR,20 nM
same,Duration of CYP2B expression induction,CYP2B; 3 mg/kg,over 20 weeks
same,Dose inducing half maximal expression of CYP2B,CYP2B,0.066 mg/kg
same,Reduction in HDL,[5],40%
same,Reduction in total plasma cholesterol,[5],40%
same,Reduction in triglyceride levels,[5],15-30%
COc1ccc(C2CC(c3ccc(Cl)cc3)=NN2c2ccccc2Cl)c(OC)c1 (centres unmarked) [Compound T0318784],"CMV-CARβ, fold increase in normalized luciferase activity over DMSO control",CARβ,3.87
same,EC50,[2],96.7 nM
same,EC50,[1]; [7],91.2 nM
same,"CMV-CARα, fold increase in normalized luciferase activity over DMSO control",CARα,1.78
Clc1ccc(CSCc2cc(Sc3c(Cl)cccc3Cl)nc(-c3ccccn3)n2)cc1 [Compound T0434523],"CMV-CARβ, fold increase in normalized luciferase activity over DMSO control",CARβ,1.29
same,EC50,[2],52.2 nM
same,EC50,[1]; [7],79.7 nM
same,"CMV-CARα, fold increase in normalized luciferase activity over DMSO control",CARα,2.17
B1,binding result,[6],binds
